Measured values as given in patent US6348445B1, “Biologically active peptides with reduced toxicity in animals and a method for preparing same” (priority 1992, dated 2002).
Values after ≈ are worked out from the molar mass of the structure shown. Where a SMILES comes first, the peptide text is derived from it. Where no end group is shown, it is not given here. The star is where a group is joined. Octanoyl = CCCCCCCC(=O)*

Legend:
S. mutans = test: anaerobic anti-microbial susceptibility test (MIC); assay type: cell-based; set-up: unit not given here; settings: 24-48 hours
[1] = system: P. aeruginosa strain ATCC 27853; assay type: cell-based; settings: for Minimal Inhibitory Concentration P: P. aeruginosa strain ATCC 27853, Table I
How it was run: (§1)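 Peptides serially diluted 1:2 to final 0.25–256 μg/ml in Mueller Hinton broth, inoculated with 1-5×10^5 CFUs/ml from mid-log culture. Incubated 16-20 hours at 37° C. MIC = lowest peptide concentration giving a clear well.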

P. gingivalis = settings: anaerobic, 24-48 hours
C. albicans = assay type: cell-based; settings: C. albicans; Table I
How it was run: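 Peptides serially diluted 1:2 to final 0.25–256 μg/ml; inoculum 1-5×10^5 CFU/ml from mid-log culture in full-strength Mueller Hinton broth. Incubated 16-20 h at 37° C. MIC taken as lowest peptide concentration giving a clear well.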

A. viscosus = test: anaerobic anti-microbial susceptibility test (MIC); assay type: cell-based; settings: 24-48 hours
[2] = system: S.aureus strain ATCC 25923; test: Minimal Inhibitory Concentration, microtiter broth dilution; assay type: cell-based; settings: Mueller Hinton broth, 16-20 hours at 37° C.
Excerpt: Table I, which follows, indicates the Minimal Inhibitory Concentration (MIC) in […] of various peptides against S.aureus strain ATCC 25923(S), P. aeruginosa strain ATCC 27853(P), E. coli ATCC strain 25922(E), and C. 4albicans (CA). […] The peptides are unsubstituted at the N-terminal; substituted with an acetyl group at the N-terminal, as indicated by Ac-; substituted with an octanoyl group at the N-terminal, as indicated by Oct-; substituted with spinogosine, as indicated by Sph-; substituted with a succinyl group, as indicated by Suc-; substituted with a hexanoyl group, as indicated by Hex-; substituted with a heptanoyl group, as indicated by Hep-; substituted with a valeryl group, as indicated by Val-; substituted with a myristryl group, as indicated by Myr-; or substituted with an ibuprofyl group, as indicated by Ibu-;
The procedure for the anti-bacterial assay is based upon the guidelines of the National Committee for Clinical Laboratory Standards, Document M7-T2, Volume 8, No. 8, 1988, which document is entirely incorporated herein by reference.
Stock solutions of peptides, with and without the appropriate substitutions, were prepared at a concentration of 512 μg/ml in sterile deionized distilled water and stored at −70° C.
The stock peptide solution was diluted in serial dilutions (1:2) down the wells of a microtiter plate so that the final concentrations of peptides in the wells were 0.25, 0.50, 1, 2, 4, 8, 16, 32, 64, 128 and 256 μg/ml. 1-5×10^5 CFUs/ml of either S. aureus ATCC 25923, E. coli ATCC 25922, P. aeruginosa ATCC 27853, or C. albicans, were added to the wells in full strength Mueller Hinton broth (BBL 11443) from a mid-log culture. The inoculum was standardized spectrophotometrically at 600 nm and was verified by colony counts. The plates were incubated for 16-20 hours at 37° C., and the minimal inhibitory concentration (MIC) for each peptide was determined. Minimal inhibitory concentration is defined as the lowest concentration of peptide which produces a clear well in the microtiter plate. The minimal inhibitory concentration of each of the peptides with and/or without the appropriate substitutions is given in Table I below.

[3] = system: E. coli ATCC strain 25922; test: as above; assay type: cell-based; settings: for Minimal Inhibitory Concentration E: E. coli ATCC strain 25922, Table I; for MIC E. coli ATCC 25922: ATCC strain 25922
How it was run: as §1

[4] = MTD of repeat-dose intraperitoneal administration; assay type: in vivo, SCID mice; settings: 135 mg/kg/week, three injections per week i.p.
Method: Determinations of a maximal tolerated dose (MTD) of repeat-dose intraperitoneal (i.p.) administration of MSI-344 or MSI-1857 in 60 SCID mice were done. Mice were injected with various doses of MSI-344 or MSI-1857 twice or thrice per week. Survival and body weight were monitored. On a twice per week dosing schedule, the MTDs of MSI-344 and MSI-1857 were 12 and 134 mg/kg/week, respectively. […] On a thrice per week dosing schedule, no deaths occurred in any groups, with high dose groups of MSI-344 and MSI-1857 receiving 90 mg/kg/week and […], respectively. A transient body weight loss was seen after initial dosing in most MSI-344 and MSI-1857 groups. No body weight loss greater than 6% occurred in any group on the thrice per week dosing schedule.
To determine estimates of MTDs of MSI-344 and MSI-1857 when administered intraperitoneally on repeat-dose regimens in SCID mice. The selection of SCID mice was based on the future plans of using this strain as host for xenograft human tumor efficacy models, and a pre-requisite for determining MTD for chronic administration that may be used during the efficacy model.
SCID mice are immunocompromised and therefore they were housed and handled in sterile environments. They had access to sterile water and sterilized chow ad lib.
A 1 mg/mL solution of MSI-344 was made in saline (0.9% sodium chloride injection USP, Abbott, North Chicago, Ill.) corrected for peptide content. Solutions of MSI-344 at concentrations of 0.6, 0.3, and 0.1 mg/mL were made by diluting the 1 mg/mL solution using saline as diluent. A 10 mg/mL solution of MSI-1857 was made in saline.
Solutions of MSI-1857 at concentrations of 6.7, 3.3, 3, 2, and 1 mg/mL were made by diluting the 10 mg/mL solution using saline as diluent.
Mice (four mice per dose group) were intraperitoneally administered MSI-344 or MSI-1857 using an injection volume of 10 mL/kg of the appropriate solution concentration on a twice per week (Groups 1 through 7) or thrice per week (Groups 8 through 15) dosing schedule every week for 20 weeks. Survival was monitored daily and body weights were recorded three times per week An interim analysis was performed at 3 weeks and the results of this interim analysis is presented in the present report.

S. aureus ATCC 29213 = assay type: cell-based; settings: ATCC 29213

MIC S. aureus ATCC 29213 (S. aureus ATCC 29213) [µg/mL] | MIC P. aeruginosa ATCC 27853 [1] [µg/mL] | MIC E. coli ATCC 25922 [3] [µg/mL] | Compound | MIC S. mutans (S. mutans) | Minimal Inhibitory Concentration P [1] [µg/mL] | MIC P. gingivalis (strain) 9-14K-1 (P. gingivalis) [μl/ml] | MIC P. gingivalis (strain) 381 (P. gingivalis) [μl/ml] | MIC P. gingivalis (strain) 450 (P. gingivalis) [μl/ml] | MIC P. gingivalis (strain) A7A1-28 (P. gingivalis) [μl/ml] | MIC P. gingivalis (strain) FAY-19M-1 (P. gingivalis) [μl/ml] | Minimal Inhibitory Concentration CA (C. albicans) [µg/mL] | MIC A. viscos (A. viscosus) [μl/ml] | Minimal Inhibitory Concentration S [2] [µg/mL] | Minimal Inhibitory Concentration E [3] [µg/mL] | lethality [4]
 |  |  | CCCCCCCC(=O)N[C@@H](CCCCN)C(=O)N[C@H](C(=O)N[C@@H](C)C(=O)N[C@@H](CCCCN)C(=O)N[C@@H](CCCCN)C(=O)N[C@H](C(=O)N[C@@H](C)C(=O)N[C@@H](CCCCN)C(=O)N[C@H](C(=O)N[C@@H](C)C(=O)N[C@@H](CCCCN)C(=O)N[C@@H](CCCCN)C(=O)N[C@H](C(=O)N[C@@H](C)C(=O)N[C@@H](CCCCN)C(=O)N[C@H](C(=O)N[C@@H](C)C(=O)N[C@@H](CCCCN)C(=O)N[C@@H](CCCCN)C(=O)N[C@H](C(=O)N[C@@H](C)C(=O)O)[C@@H](C)CC)[C@@H](C)CC)[C@@H](C)CC)[C@@H](C)CC)[C@@H](C)CC)[C@@H](C)CC [Oct-(SEQ ID NO: 86)-OH] (Octanoyl-KIAKKIAKIAKKIAKIAKKIA-OH) | 16 | 4 | 1 | 1 | 1 | 1 | 1 | 128 | 32 | 8 | 2 | 
 |  |  | H-KIAKKIAKIAKKIAKIAKKIA-OH [(SEQ ID NO: 86)-OH, (Lys Ile Ala Lys Lys Ile Ala)3] | 16 | 32 | 16 | 16 | 4 | 4 | 8 | 256 | 32 | 128 | 2 | 
 |  |  | O=S([O-])S(=O)(=O)[O-].[Na+].[Na+] [Sodium metabisulfite, reference compound] |  |  |  |  |  |  |  |  |  |  |  | no lethality
16 | 32 | 16 | GIGKFLKKAKKFGKAFVKIMKK-NH2 [SEQ ID NO: 155-NH2] |  |  |  |  |  |  |  |  |  |  |  | 
64 (≈ 18.6 µM) | 64 (≈ 18.6 µM) | 128 (≈ 37.3 µM) | CC[C@H](C)[C@H](NC(=O)CNCS(=O)(=O)O)C(=O)NCC(=O)N[C@@H](CCCCNCS(=O)(=O)O)C(=O)N[C@@H](Cc1ccccc1)C(=O)N[C@@H](CC(C)C)C(=O)N[C@@H](CCCCNCS(=O)(=O)O)C(=O)N[C@@H](CCCCNCS(=O)(=O)O)C(=O)N[C@@H](C)C(=O)N[C@@H](CCCCNCS(=O)(=O)O)C(=O)N[C@@H](CCCCNCS(=O)(=O)O)C(=O)N[C@@H](Cc1ccccc1)C(=O)NCC(=O)N[C@@H](CCCCNCS(=O)(=O)O)C(=O)N[C@@H](C)C(=O)N[C@@H](Cc1ccccc1)C(=O)N[C@H](C(=O)N[C@@H](CCCCNCS(=O)(=O)O)C(=O)N[C@H](C(=O)N[C@@H](CCSC)C(=O)N[C@@H](CCCCNCS(=O)(=O)O)C(=O)N[C@@H](CCCCNCS(=O)(=O)O)C(N)=O)[C@@H](C)CC)C(C)C |  |  |  |  |  |  |  |  |  |  |  | 
 |  |  | CCCCCCCC(=O)N[C@@H](CCCCN)C(=O)N[C@@H](CC(C)C)C(=O)N[C@@H](C)C(=O)N[C@@H](CCCCN)C(=O)N[C@@H](CC(C)C)C(=O)N[C@@H](C)C(=O)N[C@@H](CCCCN)C(=O)N[C@@H](CCCCN)C(=O)N[C@@H](CC(C)C)C(=O)N[C@@H](C)C(N)=O [Oct-(SEQ ID NO: 124)-NH2] (Octanoyl-KLAKLAKKLA-NH2) |  | 64 |  |  |  |  |  | 128 |  | 128 | 256 | 
